The results in this text go back to patent US20260374756A1, “HETEROCYCLIC COMPOUNDS AS INHIBITORS OF MONOACYLGLYCEROL LIPASE (MAGL)” (Hoffmann-La Roche Inc., priority 2022, published 2026).

pIC50: −log10 of the molar value.

This test has as its target T1, hMAGL (Homo sapiens, UniProt Q99685).
T1 sequence (Q99685 1-303): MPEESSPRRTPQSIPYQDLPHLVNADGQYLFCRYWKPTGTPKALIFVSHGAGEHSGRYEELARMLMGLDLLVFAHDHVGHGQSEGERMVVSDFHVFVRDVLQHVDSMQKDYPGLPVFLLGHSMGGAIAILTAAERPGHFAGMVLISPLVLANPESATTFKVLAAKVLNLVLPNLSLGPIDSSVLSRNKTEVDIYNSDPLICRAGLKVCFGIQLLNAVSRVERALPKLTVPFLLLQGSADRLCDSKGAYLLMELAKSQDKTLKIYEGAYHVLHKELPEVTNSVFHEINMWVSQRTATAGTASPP
The test can be described thus: 2-AG assay: MAGL inhibition, hydrolysis of 2-arachidonoylglycerol to arachidonic acid followed by mass spectrometry. The format is biochemical. In short, it runs like this: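 Read-out is LC-MS/MS of arachidonic acid released from 2-arachidonoylglycerol (8 μM final), normalised to d8-arachidonic acid internal standard after acetonitrile quench. Enzyme […] and compound were pre-mixed 15 min, then reacted 30 min, both at RT, in Tris/EDTA buffer with 0.01% Tween-20 and 2.5% DMSO.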
As usually defined, the pIC50 is the negative decadic logarithm of the IC50, by convention in mol/L. For the compound `O=C(N1CC2(CC(c3cc(C4CC4)n[nH]3)C2)C1)N1CC2(CN(Cc3nc(C(F)(F)F)no3)C2)C1` [Example 171, [6-(3-cyclopropyl-1H-pyrazol-5-yl)-2-azaspiro[3.3]heptan-2-yl]-[6-[[3-(trifluoromethyl)-1,2,4-oxadiazol-5-yl]methyl]-2,6-diazaspiro[3.3]heptan-2-yl]methanone], the pIC50 was 8.00. `O=C(N1CC2(CC(n3cnc(C(F)(F)F)n3)C2)C1)N1CC2(CN(Cc3nc(C(F)(F)F)no3)C2)C1` [Example 172, [6-[[3-(trifluoromethyl)-1,2,4-oxadiazol-5-yl]methyl]-2,6-diazaspiro[3.3]heptan-2-yl]-[6-[3-(trifluoromethyl)-1,2,4-triazol-1-yl]-2-azaspiro[3.3]heptan-2-yl]methanone] gave a negative logarithm of the IC50 (pIC50) of 7.26.

Turning to `O=C(N1CC2(CC(n3cnc(C4CC4)n3)C2)C1)N1CC2(CN(Cc3nc(C(F)(F)F)no3)C2)C1` [Example 173, [6-(3-cyclopropyl-1,2,4-triazol-1-yl)-2-azaspiro[3.3]heptan-2-yl]-[6-[[3-(trifluoromethyl)-1,2,4-oxadiazol-5-yl]methyl]-2,6-diazaspiro[3.3]heptan-2-yl]methanone], the negative-log IC50 (pIC50) is 7.92. Take `O=C(N1CC2(CCN(Cc3nc(C(F)(F)F)cs3)CC2)C1)N1CC2(CC(c3cc(C4CC4)n[nH]3)C2)C1` [Example 174, [6-(3-cyclopropyl-1H-pyrazol-5-yl)-2-azaspiro[3.3]heptan-2-yl]-[7-[[4-(trifluoromethyl)thiazol-2-yl]methyl]-2,7-diazaspiro[3.5]nonan-2-yl]methanone]: the pIC50 was 8.32.

`O=C(N1CC2(CCN(Cc3nc(C(F)(F)F)cs3)CC2)C1)N1CC2(CC(n3cnc(C4(O)CC4)n3)C2)C1` [Example 175, [6-[3-(1-hydroxycyclopropyl)-1,2,4-triazol-1-yl]-2-azaspiro[3.3]heptan-2-yl]-[7-[[4-(trifluoromethyl)thiazol-2-yl]methyl]-2,7-diazaspiro[3.5]nonan-2-yl]methanone]: the negative logarithm of the IC50 (pIC50) is 7.09. In turn, `O=C(N1CC2(CCN(Cc3nc(C(F)(F)F)cs3)CC2)C1)N1CC2(CC(n3cnc(C(F)(F)F)n3)C2)C1` [Example 176, [7-[[4-(trifluoromethyl)thiazol-2-yl]methyl]-2,7-diazaspiro[3.5]nonan-2-yl]-[6-[3-(trifluoromethyl)-1,2,4-triazol-1-yl]-2-azaspiro[3.3]heptan-2-yl]methanone] gave a pIC50 of 7.35.

In turn, `O=C(N1CC2(CCN(Cc3nc(C(F)(F)F)cs3)CC2)C1)N1CC2(CC(n3cnc(C4CC4)n3)C2)C1` [Example 177, [6-(3-cyclopropyl-1,2,4-triazol-1-yl)-2-azaspiro[3.3]heptan-2-yl]-[7-[[4-(trifluoromethyl)thiazol-2-yl]methyl]-2,7-diazaspiro[3.5]nonan-2-yl]methanone] had a negative logarithm of the IC50 (pIC50) of 8.01. For the compound `O=C(N1CC2(CC(n3cnc(C(F)(F)F)n3)C2)C1)N1CC2(CN(Cc3sncc3C(F)(F)F)C2)C1` [Example 178, [6-[[4-(trifluoromethyl)isothiazol-5-yl]methyl]-2,6-diazaspiro[3.3]heptan-2-yl]-[6-[3-(trifluoromethyl)-1,2,4-triazol-1-yl]-2-azaspiro[3.3]heptan-2-yl]methanone], the negative-log IC50 (pIC50) is 7.98.

Consider `O=C(N1CC2(CC(n3cnc(C4CC4)n3)C2)C1)N1CC2(CN(Cc3sncc3C(F)(F)F)C2)C1` [Example 179, [6-(3-cyclopropyl-1,2,4-triazol-1-yl)-2-azaspiro[3.3]heptan-2-yl]-[6-[[4-(trifluoromethyl)isothiazol-5-yl]methyl]-2,6-diazaspiro[3.3]heptan-2-yl]methanone], for which the negative logarithm of the IC50 (pIC50) is 8.70.

As for `O=C(N1CC2(CC(c3cc(C4CC4)n[nH]3)C2)C1)N1CC2(CN(Cc3cnn(C(F)(F)F)c3)C2)C1` [Example 180, [6-(3-cyclopropyl-1H-pyrazol-5-yl)-2-azaspiro[3.3]heptan-2-yl]-[6-[[1-(trifluoromethyl)pyrazol-4-yl]methyl]-2,6-diazaspiro[3.3]heptan-2-yl]methanone], the negative-log IC50 (pIC50) is 7.63. `O=C(N1CC2(CC(n3cnc(C(F)(F)F)n3)C2)C1)N1CC2(CN(Cc3cnn(C(F)(F)F)c3)C2)C1` [Example 181, [6-[[1-(trifluoromethyl)pyrazol-4-yl]methyl]-2,6-diazaspiro[3.3]heptan-2-yl]-[6-[3-(trifluoromethyl)-1,2,4-triazol-1-yl]-2-azaspiro[3.3]heptan-2-yl]methanone] gave a pIC50 of 6.88. The compound `O=C(N1CC2(CC(n3cnc(C4CC4)n3)C2)C1)N1CC2(CN(Cc3cnn(C(F)(F)F)c3)C2)C1` [Example 182, [6-(3-cyclopropyl-1,2,4-triazol-1-yl)-2-azaspiro[3.3]heptan-2-yl]-[6-[[1-(trifluoromethyl)pyrazol-4-yl]methyl]-2,6-diazaspiro[3.3]heptan-2-yl]methanone] showed a negative logarithm of the IC50 (pIC50) of 7.47. Turning to `O=C(N1CC2(CC(n3cnc(C(F)(F)F)n3)C2)C1)N1CC2(CN(Cc3cc(C(F)(F)F)no3)C2)C1` [Example 183, [6-[[3-(trifluoromethyl)isoxazol-5-yl]methyl]-2,6-diazaspiro[3.3]heptan-2-yl]-[6-[3-(trifluoromethyl)-1,2,4-triazol-1-yl]-2-azaspiro[3.3]heptan-2-yl]methanone], the pIC50 was 7.55.

Regarding `O=C(N1CC2(CC(n3cnc(C4CC4)n3)C2)C1)N1CC2(CN(Cc3cc(C(F)(F)F)no3)C2)C1` [Example 184, [6-(3-cyclopropyl-1,2,4-triazol-1-yl)-2-azaspiro[3.3]heptan-2-yl]-[6-[[3-(trifluoromethyl)isoxazol-5-yl]methyl]-2,6-diazaspiro[3.3]heptan-2-yl]methanone], the pIC50 is 8.18.

The compound `O=C(N1CC2(CC(c3cc(C4CC4)n[nH]3)C2)C1)N1CC2(CN(Cc3ncc(C(F)F)s3)C2)C1` [Example 185, [6-(3-cyclopropyl-1H-pyrazol-5-yl)-2-azaspiro[3.3]heptan-2-yl]-[6-[[5-(difluoromethyl)thiazol-2-yl]methyl]-2,6-diazaspiro[3.3]heptan-2-yl]methanone] had a pIC50 of 8.46. As to `O=C(N1CC2(CC(n3cnc(C4(O)CC4)n3)C2)C1)N1CC2(CN(Cc3ncc(C(F)F)s3)C2)C1` [Example 186], the pIC50 was 7.08.

`O=C(N1CC2(CC(n3cnc(C(F)(F)F)n3)C2)C1)N1CC2(CN(Cc3ncc(C(F)F)s3)C2)C1` [Example 187, [6-[[5-(difluoromethyl)thiazol-2-yl]methyl]-2,6-diazaspiro[3.3]heptan-2-yl]-[6-[3-(trifluoromethyl)-1,2,4-triazol-1-yl]-2-azaspiro[3.3]heptan-2-yl]methanone] showed a negative-log IC50 (pIC50) of 7.82.

`O=C(N1CC2(CC(n3cnc(C4CC4)n3)C2)C1)N1CC2(CN(Cc3ncc(C(F)F)s3)C2)C1` [Example 188, [6-(3-cyclopropyl-1,2,4-triazol-1-yl)-2-azaspiro[3.3]heptan-2-yl]-[6-[[5-(difluoromethyl)thiazol-2-yl]methyl]-2,6-diazaspiro[3.3]heptan-2-yl]methanone] had a pIC50 of 8.40. `O=C(N1CC2(CC(n3cnc(C(F)(F)F)n3)C2)C1)N1CC2(CN(Cc3cc(C(F)(F)F)on3)C2)C1` [Example 189, [6-[[5-(trifluoromethyl)isoxazol-3-yl]methyl]-2,6-diazaspiro[3.3]heptan-2-yl]-[6-[3-(trifluoromethyl)-1,2,4-triazol-1-yl]-2-azaspiro[3.3]heptan-2-yl]methanone]: the pIC50 is 7.30. Regarding `O=C(N1CC2(CC(n3cnc(C4CC4)n3)C2)C1)N1CC2(CN(Cc3cc(C(F)(F)F)on3)C2)C1` [Example 190, [6-(3-cyclopropyl-1,2,4-triazol-1-yl)-2-azaspiro[3.3]heptan-2-yl]-[6-[[5-(trifluoromethyl)isoxazol-3-yl]methyl]-2,6-diazaspiro[3.3]heptan-2-yl]methanone], the negative logarithm of the IC50 (pIC50) is 8.12.

`Cn1cc(CN2CC3(C2)CN(C(=O)N2CC4(CC(n5cnc(C(F)(F)F)n5)C4)C2)C3)c(C(F)(F)F)n1` [Example 191, [6-[[1-methyl-3-(trifluoromethyl)pyrazol-4-yl]methyl]-2,6-diazaspiro[3.3]heptan-2-yl]-[6-[3-(trifluoromethyl)-1,2,4-triazol-1-yl]-2-azaspiro[3.3]heptan-2-yl]methanone] gave a pIC50 of 6.81. Compound `Cn1cc(CN2CC3(C2)CN(C(=O)N2CC4(CC(n5cnc(C6CC6)n5)C4)C2)C3)c(C(F)(F)F)n1` [Example 192] gave a negative-log IC50 (pIC50) of 7.77.

For `O=C(N1CC2(CC(n3cnc(C(F)(F)F)n3)C2)C1)N1CC2(CN(Cc3nnn(CC(F)(F)F)n3)C2)C1` [Example 193, [6-[[2-(2,2,2-trifluoroethyl)tetrazol-5-yl]methyl]-2,6-diazaspiro[3.3]heptan-2-yl]-[6-[3-(trifluoromethyl)-1,2,4-triazol-1-yl]-2-azaspiro[3.3]heptan-2-yl]methanone], the negative-log IC50 (pIC50) was 6.14. Compound `O=C(N1CC2(CC(n3cnc(C4CC4)n3)C2)C1)N1CC2(CN(Cc3nnn(CC(F)(F)F)n3)C2)C1` [Example 194, [6-(3-cyclopropyl-1,2,4-triazol-1-yl)-2-azaspiro[3.3]heptan-2-yl]-[6-[[2-(2,2,2-trifluoroethyl)tetrazol-5-yl]methyl]-2,6-diazaspiro[3.3]heptan-2-yl]methanone] gave a negative-log IC50 (pIC50) of 6.83. Regarding `O=C(N1CC2(CC(n3cnc(C(F)(F)F)n3)C2)C1)N1CC2(CN(Cc3cnn(CC(F)(F)F)n3)C2)C1` [Example 195, [6-[[2-(2,2,2-trifluoroethyl)triazol-4-yl]methyl]-2,6-diazaspiro[3.3]heptan-2-yl]-[6-[3-(trifluoromethyl)-1,2,4-triazol-1-yl]-2-azaspiro[3.3]heptan-2-yl]methanone], the pIC50 was 6.36.
